Laboratory results: patent EP0377489A2, “Purified C5a receptor from human polymorphonuclear leukocytes” (MERCK & CO. INC., priority 1989, dated 1990)

Assays:
[1] = test system: C5a receptor from PMN membranes; assay: Release of binding sites from the membrane: total binding activity of detergent extracts at saturation compared with intact membrane; set-up: species or system human
Protocol: In additional experiments (results not shown) the ability of digitonin and β-dodecyl maltoside to release binding sites from the membrane was determined by comparing the total binding activity of the extracts, at saturation, with that of an equivalent amount of intact membrane. In the two experiments in which a direct comparison was made the efficiencies of the detergents appeared to be similar, both solubilized 30-35% of the receptors initially present in the membrane. However, over the course of the work we did observe variability from experiment to experiment and it is our impression that, on average, digitonin was more efficient than β-dodecyl maltoside (for an example, see Table I).

[2] = test system: solubilized C5a receptor; assay: Inhibition of C5a binding to solubilized or purified receptor by nucleotides; set-up: species or system human
Protocol: -All assays, except where noted, were performed at 4°C, with freshly thawed membranes or freshly prepared soluble receptor. To assay intact membranes, assay buffer (50 mM HEPES, pH 7.2, containing 1 mM CaCl₂, 5 mM MgCl₂, 0.1 mM PMSF, 0.1% bacitracin, and 0.5% bovine serum albumin), ¹²⁵I-C5a (typically 0.1 ng), and membrane (typically 0.5 µg) were added sequentially to a final volume of 200 µl. After incubation for 60-90 minutes 2 ml of assay buffer was added, the solution mixed, and the sample filtered through either a Whatman® GF/C filter treated with 0.33% polyethyleneimine or an untreated Millipore®GVWP filter. […] The filters were then counted in a Packard 460 γ-counter. Nonspecific backgrounds were determined by including 20 ng or more of unlabled C5a in the incubation mixture. To assay soluble receptor, assay buffer, solubilized membrane (typically 5 µl) and ¹²⁵I-C5a were mixed to a final volume of 200 µl and incubated for 15-30 minutes, at which time 500 µl of 0.1% bovine γ-globulin and 500 µl of 30% polyethylene glycol were added sequentially with vigorous mixing. After an additional 5 minutes, the sample was filtered and washed with 2 ml of a 9% PEG solution. (Precipitation is essentially complete in less than one minute and the precipitated receptor-­ligand complex is stable for more than 30 minutes.)
As shown in Figure 5 membranes were solubilized in digitonin and assayed for binding activity in the presence of increasing amounts of GTPγS.

Compound | receptors initially present in the membrane solubilized [1] | maximum inhibition of C5a binding ([2]; digitonin solubilized membranes) [%] | IC50 ([2]; inhibition of C5a binding, digitonin solubilized membranes, read-out: IC₅₀) [nM] | inhibition of binding of C5a to the purified receptor ([2]; purified receptor, 3 different preparations)
CCCCCCCCCCCCO[C@@H]1O[C@H](CO)[C@@H](O[C@H]2O[C@H](CO)[C@@H](O)[C@H](O)[C@H]2O)[C@H](O)[C@H]1O [β-Dodecyl maltoside] | 30-35% |  |  | 
Nc1nc2c(ncn2[C@@H]2O[C@H](COP(=O)(O)OP(=O)(O)OP(O)(O)=S)[C@@H](O)[C@H]2O)c(=O)[nH]1 [GTPγS] |  | 85 | 10 | 27-50%
